Experimental data reported in PMC9862597, “Anti-Colorectal Cancer Effects of a Novel Camptothecin Derivative PCC0208037 In Vitro and In Vivo” (Pharmaceuticals, 2022).

What was measured:
[1] = system: HCT116 cells; assay: MTT cell viability assay, HCT116; type: cell-based; conditions: Homo sapiens, HCT-116, 72 h
Method: Cell viability was assessed using the MTT assay, as previously reported. Briefly, colorectal cancer cells (LS180, HCT116, CT-26, and HT-29 cells) were plated onto 96-well plates at 3000 cells per well and incubated overnight. […] Control cells were treated with DMSO at a final concentration of 0.1%. Cells were cultured with the compounds or medium for 72 h. The cells were then treated with MTT. The medium was then decanted, and DMSO was added and shaken until the color reaction was complete. The […] were read using a Molecular Devices SpectraMax M5 (San Jose, CA, USA) at OD570 nm. The half maximal inhibitory concentration (IC50) was calculated.

[2] = system: LS180 and HCT116 cells; assay: Cell growth curve assay; type: cell-based; conditions: 0.001, 0.003 µmol/L, counts over 6 days
Method: Cell proliferation was examined by a cell growth curve assay and a clone formation assay. Colorectal cancer cells (LS180 and HCT116 cells) were plated onto six-well plates at a density of 8000 cells per well. […] The number of cells was measured 24 h after the drug treatments. Growth curves were generated from cell counts over 6 consecutive days. For the clone formation assay, colorectal cancer cells (LS180 and HCT116 cells) were plated onto six-well plates at a density of 800 cells per well. […] Cells were then incubated with designated concentrations of PCC0208037. Fourteen days later, cells were stained with a crystal violet solution, and clones were counted.
Figure 2 Effect of PCC0208037 on cell growth. (A) Cell growth curves of LS180 cells under different treatments. (B) Cell growth curves of HCT116 cells under different treatments. The data were expressed as the mean ± SD (n = 3). * p < 0.05 as compared to the control.

[3] = PCC0208037- and CPT-11-induced toxicity in mice; conditions: 50 mg/kg/day i.p. for four days
[4] = system: LS180 cells; assay: Flow cytometry cell cycle and apoptosis assay; type: cell-based; conditions: LS180, 24, 48 and 72 h
Method: Cell cycle analysis and an Apoptosis Assessment were performed using flow cytometry. LS180 cells were seeded in 6-well plates at a density of 1 × 10^5 cells per well for 12 h, and then different concentrations of PCC0208037 were added for 24, 48, and 72 h, respectively. Cells were stained with PI- or PI/FITC-labeled annexin, and the effects of PCC0208037 on cell cycle progression and apoptosis were analyzed by flow cytometry.
Figure 5 PCC0208037 induced G2/M phase arrest and apoptosis in LS180 cells. (A) Cells were treated with multiple concentrations of PCC0208037 for 24, 48, and 72 h and then analyzed by flow cytometry with PI staining. (B). Cells were treated with multiple concentrations of PCC0208037 for 24, 48, and 72 h and then analyzed by flow cytometry with annexin VeFITC staining. The data were expressed as the mean ± SD (n = 3). * p < 0.05 as compared to the control.

[5] = system: LS180 and HCT116 cells; assay: Western blot of DNA damage and apoptosis related proteins; type: cell-based; conditions: 0.01 and 0.03 μM, compared to control
Method: Effects of PCC0208037 on the protein expression levels were examined by Western blotting, as described previously. Briefly, 2 × 10^6 LS180 and HCT116 cells were seeded in 10-cm dishes to adhere overnight. […] At the desired time points, cells were washed twice with a cold PBS. Then, cells were lysed in the RIPA buffer for 30 min on ice. The RIPA buffer contains protease inhibitors and phosphatase inhibitors. After sonication, the samples were centrifuged at 12,000 rpm, and then the supernatants were harvested and assayed for the protein concentration. Equal amounts of protein (30 μg) were separated with a polyacrylamide gel and transferred to a PVDF membrane. The membranes were blocked for 2 h (in 5% skim milk) and then incubated with primary antibodies overnight at 4 °C: ATM p-ATM, ATR, p-ATR, Chk1, p-Chk1, Chk2, p-Chk2, P53, p-P53, Bcl2, gamma H2AX, Bax, Puma, β-actin, and GAPDH. Then, the membranes were incubated with secondary antibodies for 2 h at room temperature. All these antibodies were diluted to a 1:1000 concentration in use. The immunoblots were visualized by a BeyoECL Plus enhanced chemiluminescence system.
Figure 6 Effects of PCC0208037 on molecules related to DNA damage in CRC cells. […]

[6] = Pharmacokinetic study, single intravenous dose
Method: Blood samples were collected at 0.083 h, 0.25 h, 0.5 h, 1 h, 2 h, 4 h, 8 h, and 12 h after administration. Plasma was prepared after centrifugation at 6000× g for 5 min and then stored at −20 °C for further analysis.

[7] = BALB/c, mouse, in vivo, iv, 10.65 mg/kg
[8] = PCC0208037 in plasma, 10.65 mg/kg PCC0208037 i.v., n = 3

Compound: CCc1c2c(nc3ccc(O)cc13)-c1cc3c(c(=O)n1C2)COC(=O)[C@@]3(CC)OC(=O)Nc1nc(=O)n([C@@H]2O[C@H](C)[C@@H](O)[C@H]2O)cc1F [PCC0208037]
- IC50 [1]: 2.9 ± 0.61 µM
- cell growth ability (cell growth curve) [2]: decreased the cell growth ability in a dose-dependent manner
- colorectal tissue histomorphological examination (H&E) ([3]; colon after 7 days): A mild reduction of goblet cells and a mild infiltration of lymphocytes
- mortality ([3]; seven-day observation): No animal died
- recovery of body weight and food intake decrease ([3]; seven-day observation): began to recover on the 6th day onwards
- percentage of apoptotic cells ([4]; FITC annexin V staining): significantly increased the percentage of apoptotic cells
- ratio of cells in the G2/M phase ([4]; PI staining): significantly increased the ratio of the cells in the G2/M phase
- protein levels of molecules associated with DNA damage ([5]; 8 h): significantly up-regulated the protein levels of γ-H2AX, p-ATM, p-Chk1, p-Chk2, p-P53, and P53
- protein levels of molecules associated with apoptosis ([5]; 24 h): significantly up-regulated the protein levels of BAX and PUMA and down-regulated the protein level of Bcl-2
- Cmax [6, 7]: 137 µg/mL
- Tmax [6, 7]: 11.4 ± 4.2 min
- half-life [6, 7]: 70.2 ± 0.9 min
- AUCinf [6, 8]: 68,388.4 ± 17,991.1 H * ng/mL
- AUClast [6, 8]: 68,292.5 ± 18,078.2 H * ng/mL
